Results reported in patent US10196390B2, “TYK2 inhibitors and uses thereof” (Nimbus Lakshmi, Inc., priority 2014, dated 2019).

Legend:
TYK2 = TYK2 (Homo sapiens (Human), UniProt P29597); experiment: Tyk2 activity inhibition assay (radioactive kinase assay / Caliper assay); assay type: biochemical
Description: Peptide substrate, [[…]], (20 μM) is prepared in reaction buffer (20 mM Hepes pH 7.5, 10 mM MgCl2, 1 mM EGTA, 0.02% Brij35, 0.02 mg/mL BSA, […], 2 mM DTT, 1% DMSO. TYK2 (Invitrogen) kinase is added, followed by compounds in DMSO. 33PATP is added to initiate the reaction in ATP at 10 μM. Kinase reaction is incubated for 120 min at room temp and reactions are spotted onto P81 ion exchange paper (Whatman #3698-915), and then washed extensively in 0.75% phosphoric acid, prior to reading the radioactivity counts. For JAK2 (Invitrogen) kinase assay the peptide substrate poly[Glu:Tyr](4:1), 0.2 mg/ml is used, in the reaction carried out the same as for TYK2.
(§1) The caliper machine employs an off chip mobility shift assay to detect phosphorylated peptide substrates from kinase assays, using microfluidics technology. The assays are carried out at ATP concentration equivalent to the ATP Km, and at 1 mM ATP. Compounds are serially diluted in DMSO then further diluted in assay buffer (25 mM HEPES, pH 7.5, 0.01% Brij-35, 0.01% Triton, 0.5 mM EGTA). 5 ul of diluted compound was added into wells first, then 10 ul of enzyme mix was added into wells, followed by 10 uL of substrate mix (peptide and ATP in 10 mM MgCl2) to start reaction. Reaction was incubated at 28° C. for 25 min and then added 25 ul stop buffer (100 mM HEPES, 0.015% Brij-35, 50 mM EDTA), followed by reading with Caliper. JAK2 at 1 nM final concentration and TYK2 at 9.75 nM are from Carna, and substrates used are ATP at 20 and 16 uM, respectively. JAK2 assay uses peptide 22 and TYK2 uses peptide 30 (Caliper), each at 3 uM.

JAK2 = JAK2 (Homo sapiens (Human), UniProt O60674); experiment: JAK2 activity inhibition assay (radioactive kinase assay / Caliper assay); assay type: biochemical; details: read-out: JAK2 Ki
Chain of JAK2 (O60674 whole entry): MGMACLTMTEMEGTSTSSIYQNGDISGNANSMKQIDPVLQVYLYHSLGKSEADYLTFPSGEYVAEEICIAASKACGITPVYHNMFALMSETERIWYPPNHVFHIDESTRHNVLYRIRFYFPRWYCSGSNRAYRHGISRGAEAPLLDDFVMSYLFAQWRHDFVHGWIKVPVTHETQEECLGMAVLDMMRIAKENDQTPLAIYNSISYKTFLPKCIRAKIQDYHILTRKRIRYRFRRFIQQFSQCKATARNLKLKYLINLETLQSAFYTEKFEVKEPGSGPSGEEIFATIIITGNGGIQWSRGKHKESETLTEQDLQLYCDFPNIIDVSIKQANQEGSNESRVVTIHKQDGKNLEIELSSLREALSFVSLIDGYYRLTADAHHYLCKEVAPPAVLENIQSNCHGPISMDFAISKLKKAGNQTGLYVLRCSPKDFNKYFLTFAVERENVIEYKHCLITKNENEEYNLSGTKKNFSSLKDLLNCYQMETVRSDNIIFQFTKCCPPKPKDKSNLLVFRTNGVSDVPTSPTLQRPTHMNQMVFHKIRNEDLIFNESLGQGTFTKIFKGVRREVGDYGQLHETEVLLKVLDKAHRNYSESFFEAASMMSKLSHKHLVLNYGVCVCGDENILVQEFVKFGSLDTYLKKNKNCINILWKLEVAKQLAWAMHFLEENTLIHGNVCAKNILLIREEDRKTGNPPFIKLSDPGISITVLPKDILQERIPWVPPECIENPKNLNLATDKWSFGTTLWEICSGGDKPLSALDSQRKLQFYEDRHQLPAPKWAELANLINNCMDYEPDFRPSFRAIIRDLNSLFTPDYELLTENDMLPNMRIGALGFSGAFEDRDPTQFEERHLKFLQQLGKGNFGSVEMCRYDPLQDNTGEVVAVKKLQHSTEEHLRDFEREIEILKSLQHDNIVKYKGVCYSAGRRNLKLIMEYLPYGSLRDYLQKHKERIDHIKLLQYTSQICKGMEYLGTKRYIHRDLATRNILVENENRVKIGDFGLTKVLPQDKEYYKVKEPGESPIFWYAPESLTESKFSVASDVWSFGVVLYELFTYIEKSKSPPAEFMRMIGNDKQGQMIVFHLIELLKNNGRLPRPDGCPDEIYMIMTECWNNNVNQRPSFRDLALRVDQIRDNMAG
Description: as §1, with “The assays are carried out at ATP concentration equivalent to the ATP Km, and at 1 mM ATP.” left out, “Caliper.” for “Caliper. JAK2 at 1 nM final concentration and TYK2 at 9.75 nM are from Carna, and substrates used are ATP at 20 and 16 uM, respectively. JAK2 assay uses peptide 22 and TYK2 uses peptide 30 (Caliper), each at 3 uM.”

Chain of TYK2 (P29597 whole entry): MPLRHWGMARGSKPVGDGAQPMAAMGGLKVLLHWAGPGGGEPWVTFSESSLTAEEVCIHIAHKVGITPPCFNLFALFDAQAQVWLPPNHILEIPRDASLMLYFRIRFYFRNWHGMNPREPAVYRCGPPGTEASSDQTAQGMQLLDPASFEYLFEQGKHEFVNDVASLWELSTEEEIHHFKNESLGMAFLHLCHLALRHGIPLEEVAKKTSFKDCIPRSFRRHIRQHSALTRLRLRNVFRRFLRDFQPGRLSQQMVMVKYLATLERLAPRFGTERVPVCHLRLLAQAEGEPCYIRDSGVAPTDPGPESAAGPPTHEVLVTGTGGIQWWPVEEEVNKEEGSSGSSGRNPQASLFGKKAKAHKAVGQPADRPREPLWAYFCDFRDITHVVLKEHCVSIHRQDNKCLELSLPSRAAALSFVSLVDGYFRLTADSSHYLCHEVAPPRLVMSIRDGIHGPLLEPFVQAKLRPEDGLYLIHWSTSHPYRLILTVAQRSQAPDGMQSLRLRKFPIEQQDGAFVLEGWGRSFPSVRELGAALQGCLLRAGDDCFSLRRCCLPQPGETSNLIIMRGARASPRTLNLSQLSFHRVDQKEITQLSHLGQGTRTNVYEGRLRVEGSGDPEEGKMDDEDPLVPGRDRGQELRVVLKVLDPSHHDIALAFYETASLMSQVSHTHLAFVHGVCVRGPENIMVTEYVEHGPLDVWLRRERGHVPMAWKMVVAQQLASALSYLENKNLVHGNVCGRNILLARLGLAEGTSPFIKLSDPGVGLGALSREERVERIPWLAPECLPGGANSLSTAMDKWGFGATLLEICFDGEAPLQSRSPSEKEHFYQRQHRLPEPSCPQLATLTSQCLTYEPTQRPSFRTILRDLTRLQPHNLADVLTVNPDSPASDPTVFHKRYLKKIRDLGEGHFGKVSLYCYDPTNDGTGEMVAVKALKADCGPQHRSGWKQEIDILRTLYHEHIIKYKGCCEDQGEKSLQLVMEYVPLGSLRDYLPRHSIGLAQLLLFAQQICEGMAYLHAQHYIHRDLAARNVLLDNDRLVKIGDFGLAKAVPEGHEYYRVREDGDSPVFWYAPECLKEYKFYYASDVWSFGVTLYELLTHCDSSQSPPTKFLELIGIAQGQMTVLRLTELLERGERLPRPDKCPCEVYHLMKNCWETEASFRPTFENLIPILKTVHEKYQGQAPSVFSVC

Compound	Ki (TYK2) [µM]	Ki (JAK2) [µM]
CN1CCN[C@](C)(c2ccc(Nc3nc(-c4c(F)cccc4F)nc4c3C(=O)NC4)cc2)C1=O [Compound I-216, (R)-2-(2,6-difluorophenyl)-4-((4-(2,4-dimethyl-3-oxopiperazin-2-yl)phenyl)amino)-6,7-dihydro-5H-pyrrolo[3,4-d]pyrimidin-5-one]	< 0.01	0.1 to 1
O=C(Cc1ccc(Nc2nc(-c3c(F)cccc3F)nc3c2C(=O)NC3)cc1)NCC1CNC1 [Compound I-72, N-(azetidin-3-ylmethyl)-2-(4-((2-(2,6-difluoro-phenyl)-5-oxo-6,7-dihydro-5H-pyrrolo[3,4-d]pyrimidin-4-yl)amino)-phenyl)acetamide]	< 0.01	0.1 to 1
COc1ccc(Nc2cc(-c3c(F)cccc3Cl)nc3c2C(=O)NC3)nc1 [Compound I-145, 2-(2-chloro-6-fluorophenyl)-4-((5-methoxypyridin-2-yl)amino)-6,7-dihydro-5H-pyrrolo[3,4-b]pyridin-5-one]	< 0.01	0.01 to 0.1
O=C1NCc2nc(-c3c(F)cccc3F)cc(Nc3ccc(OCCN4CCC4)cn3)c21 [Compound I-134, 4-((5-(2-(azetidin-1-yl)ethoxy)pyridin-2-yl)amino)-2-(2,6-difluorophenyl)-6,7-dihydro-5H-pyrrolo[3,4-b]pyridin-5-one]	< 0.01	0.01 to 0.1
O=C1NCc2nc(-c3c(F)cccc3F)cc(Nc3ccc(C(=O)N4CCOCC4)nc3)c21 [Compound I-280, 2-(2,6-difluorophenyl)-4-((6-(morpholine-4-carbonyl)pyridin-3-yl)amino)-6,7-dihydro-5H-pyrrolo[3,4-b]pyridin-5-one]	0.01 to 0.1	0.1 to 1
O=C(O)Cc1ccc(Nc2nc(-c3c(F)cccc3F)nc3c2C(=O)NC3)cc1 [Compound I-2, 2-(4-((2-(2,6-difluorophenyl)-5-oxo-6,7-dihydro-5H-pyrrolo[3,4-d]pyrimidin-4-yl)amino)phenyl)acetic Acid]	< 0.01	> 1
CCNC(=O)Cn1cc(Nc2nc(-c3c(F)cccc3F)nc3c2C(=O)NC3)cn1 [Compound I-69, 2-(4-((2-(2,6-difluorophenyl)-5-oxo-6,7-dihydro-5H-pyrrolo[3,4-d]pyrimidin-4-yl)amino)-1H-pyrazol-1-yl)-N-ethylacetamide]	0.01 to 0.1	> 1
CCNC(=O)Cc1ccc(Nc2cc(-c3c(F)cccc3Cl)nc3c2C(=O)NC3)nc1 [Compound I-199, 2-(6-((2-(2-chloro-6-fluorophenyl)-5-oxo-6,7-dihydro-5H-pyrrolo[3,4-b]pyridin-4-yl)amino)pyridin-3-yl)-N-ethylacetamide]	< 0.01	0.01 to 0.1
CCOC(=O)Cc1ccc(Nc2nc(-c3c(F)cccc3Cl)nc3c2C(=O)NC3)cc1 [Compound I-4, ethyl 2-(4-((2-(2-chloro-6-fluorophenyl)-5-oxo-6,7-dihydro-5H-pyrrolo[3,4-d]pyrimidin-4-yl)amino)phenyl)acetate]	< 0.01	0.1 to 1
Cn1cc(Nc2nc(-c3c(F)cccc3F)nc3c2C(=O)NC3)cn1 [Compound I-160, 2-(2,6-difluorophenyl)-4-((1-methyl-1H-pyrazol-4-yl)amino)-6,7-dihydro-5H-pyrrolo[3,4-d]pyrimidin-5-one]	0.01 to 0.1	> 1
O=C1NCc2nc(-c3c(F)cccc3F)nc(Nc3ccc(CC(=O)N4CCS(=O)(=O)CC4)cc3)c21 [Compound I-84, 2-(2,6-difluorophenyl)-4-((4-(2-(1,1-dioxidothiomorpholino)-2-oxoethyl)phenyl)amino)-6,7-dihydro-5H-pyrrolo[3,4-d]pyrimidin-5-one]	< 0.01	0.01 to 0.1
CC1(C)CN(c2ccc(Nc3cc(-c4c(F)cccc4F)nc4c3C(=O)NC4)nc2)CC[C@H]1O [Compound I-268, (R)-2-(2,6-difluorophenyl)-4-((5-(4-hydroxy-3,3-dimethyl-piperidin-1-yl)pyridin-2-yl)amino)-6,7-dihydro-5H-pyrrolo[3,4-b]pyridin-5-one]	< 0.01	0.01 to 0.1
CN1CCN(C)[C@@](C)(c2ccc(Nc3nc(-c4c(F)cccc4F)nc4c3C(=O)NC4)cc2)C1=O [Compound I-211, (S)-2-(2,6-difluorophenyl)-4-((4-(1,2,4-trimethyl-3-oxopiperazin-2-yl)phenyl)amino)-6,7-dihydro-5H-pyrrolo[3,4-d]pyrimidin-5-one]	< 0.01	0.01 to 0.1
O=C(Cc1ccc(Nc2nc(-c3c(F)cccc3F)nc3c2C(=O)NC3)cn1)NC1CCNCC1 [Compound I-19, 2-(5-((2-(2,6-difluorophenyl)-5-oxo-6,7-dihydro-5H-pyrrolo[3,4-d]pyrimidin-4-yl)amino)pyridin-2-yl)-N-(piperidin-4-yl)acetamide]	0.1 to 1	> 1
O=C1NCc2nc(-c3c(F)cccc3F)nc(Nc3ccc(CC(=O)N4CCOC[C@@H]4C(=O)O)cc3)c21 [Compound I-194, (R)-4-(2-(4-((2-(2,6-difluorophenyl)-5-oxo-6,7-dihydro-5H-pyrrolo[3,4-d]pyrimidin-4-yl)amino)phenyl)acetyl)morpholine-3-carboxylic Acid]	0.01 to 0.1	0.1 to 1
CN1CCNC(C)(c2ccc(Nc3cc(-c4c(F)cccc4F)nc4c3C(=O)NC4)nc2)C1=O (centres unmarked) [Compound I-223, 2-(2,6-difluorophenyl)-4-((5-(2,4-dimethyl-3-oxopiperazin-2-yl)pyridin-2-yl)amino)-6,7-dihydro-5H-pyrrolo[3,4-b]pyridin-5-one]	< 0.01	< 0.01
CCOC(=O)C(C)(C)c1ccc(Nc2nc(-c3c(F)cccc3F)nc3c2C(=O)NC3)cc1 [Compound I-178, ethyl 2-(4-((2-(2,6-difluorophenyl)-5-oxo-6,7-dihydro-5H-pyrrolo[3,4-d]pyrimidin-4-yl)amino)phenyl)-2-methylpropanoate]	< 0.01	0.1 to 1
COc1ccc(Nc2cc(-c3c(F)cccc3F)nc3c2C(=O)NC3)cc1 [Compound I-230, 2-(2,6-difluorophenyl)-4-((4-methoxyphenyl)amino)-6,7-dihydro-5H-pyrrolo[3,4-b]pyridin-5-one]	< 0.01	0.1 to 1
O=C1NCc2nc(-c3c(F)cccc3F)nc(Nc3ccccc3)c21 [Compound I-179, 2-(2,6-difluorophenyl)-4-(phenylamino)-6,7-dihydro-5H-pyrrolo[3,4-d]pyrimidin-5-one]	0.01 to 0.1	0.1 to 1
COC(=O)[C@@H]1COCCN1C(=O)Cc1ccc(Nc2nc(-c3c(F)cccc3F)nc3c2C(=O)NC3)cc1 [Compound I-111, methyl (S)-4-(2-(4-((2-(2,6-difluorophenyl)-5-oxo-6,7-dihydro-5H-pyrrolo[3,4-d]pyrimidin-4-yl)amino)phenyl)acetyl)morpholine-3-carboxylate]	0.01 to 0.1	0.1 to 1
COC(=O)[C@H]1C[C@H](Nc2nc(-c3c(F)cccc3F)nc3c2C(=O)NC3)C1 [Compound I-129, methyl (1r,3r)-3-((2-(2,6-difluorophenyl)-5-oxo-6,7-dihydro-5H-pyrrolo[3,4-d]pyrimidin-4-yl)amino)cyclobutane-1-carboxylate]	> 1	> 1
N#Cc1cccc(F)c1-c1cc(Nc2ccc(N3CCOCC3)cn2)c2c(n1)CNC2=O [Compound I-281, 3-fluoro-2-(4-((5-morpholinopyridin-2-yl)amino)-5-oxo-6,7-dihydro-5H-pyrrolo[3,4-b]pyridin-2-yl)benzonitrile]	< 0.01	< 0.01
